Experimental data from publication PMC9322761, “Design, Synthesis and Biological Characterization of Histone Deacetylase 8 (HDAC8) Proteolysis Targeting Chimeras (PROTACs) with Anti-Neuroblastoma Activity” (International Journal of Molecular Sciences, 2022).
Like-named read-outs stand apart in the source and are kept apart here.

Key:
[1] = molecular target: T1, HDAC8 (Homo sapiens, UniProt Q9BY41); test: In vitro HDAC8 activity assay (Fluor de Lys-HDAC8); format: biochemical; set-up: made in house; conditions: for SI (HDAC6/HDAC8): selectivity index, HDAC6 over HDAC8
T1 sequence (Q9BY41 1-377): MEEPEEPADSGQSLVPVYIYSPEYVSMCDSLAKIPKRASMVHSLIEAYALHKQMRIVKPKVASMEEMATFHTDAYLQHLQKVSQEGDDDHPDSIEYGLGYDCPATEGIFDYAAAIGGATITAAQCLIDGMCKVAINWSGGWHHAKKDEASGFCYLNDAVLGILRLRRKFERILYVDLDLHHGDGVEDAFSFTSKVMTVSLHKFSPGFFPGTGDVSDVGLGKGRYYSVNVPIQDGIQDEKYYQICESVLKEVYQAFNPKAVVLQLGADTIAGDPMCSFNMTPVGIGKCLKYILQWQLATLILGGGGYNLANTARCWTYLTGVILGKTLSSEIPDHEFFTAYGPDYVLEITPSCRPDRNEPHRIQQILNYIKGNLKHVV
Method: Recombinant hHDAC8 was produced by Romier et al. in Strasbourg. The HDAC8 activity assays were performed according to the commercial HDAC8 Fluorometric Drug Discovery Kit (Fluor de Lys(R)-HDAC8, BML-KI178) corresponding to the instructions of the manufacturer. As substrate a tetrapeptide connected to aminomethylcoumarin (AMC) H2N-Arg- His-Lys(Ac)-Lys(Ac)-AMC was synthesized as previously described. The enzyme was incubated for 90 min at 37 °C, with a substrate concentration of 50 µM and increasing concentrations of inhibitors. The stop-solution-containing inhibitor was added to stop the hHDAC8 activity, and Trypsin was added to release the AMC. The solution was incubated for 20 min at 37 °C to develop the assay.
(§1) Inhibition was measured at increasing concentration and IC50 was calculated by nonlinear regression with Origin 9.0G software.

[2] = molecular target: HDAC1 (Homo sapiens, UniProt Q13547); test: In vitro HDAC inhibitory activity assay, recombinant HDAC1 (fluorogenic substrate ZMAL); format: biochemical; set-up: purchased BPS Biosciences; conditions: for inhibition at 1 µM / inhibition at 10 µM: read-out: HDAC1 % inhib. at given conc.
Method: (§2) The in vitro testing on recombinant HDACs was performed as previously described. Recombinant human HDAC1 and −6 were purchased from BPS Biosciences. The enzyme inhibition was determined by using a reported homogenous fluorescence assay. […] Fluorescence intensity was measured at an excitation wavelength of 390 nm and an emission wavelength of 460 nm in a microtiter plate reader (BMG Polarstar).
as §1

[3] = molecular target: T2, HDAC6 (Homo sapiens, UniProt Q9UBN7); test: In vitro HDAC inhibitory activity assay, recombinant HDAC6 (fluorogenic substrate ZMAL); format: biochemical; set-up: purchased BPS Biosciences
T2 sequence (Q9UBN7 1-1215): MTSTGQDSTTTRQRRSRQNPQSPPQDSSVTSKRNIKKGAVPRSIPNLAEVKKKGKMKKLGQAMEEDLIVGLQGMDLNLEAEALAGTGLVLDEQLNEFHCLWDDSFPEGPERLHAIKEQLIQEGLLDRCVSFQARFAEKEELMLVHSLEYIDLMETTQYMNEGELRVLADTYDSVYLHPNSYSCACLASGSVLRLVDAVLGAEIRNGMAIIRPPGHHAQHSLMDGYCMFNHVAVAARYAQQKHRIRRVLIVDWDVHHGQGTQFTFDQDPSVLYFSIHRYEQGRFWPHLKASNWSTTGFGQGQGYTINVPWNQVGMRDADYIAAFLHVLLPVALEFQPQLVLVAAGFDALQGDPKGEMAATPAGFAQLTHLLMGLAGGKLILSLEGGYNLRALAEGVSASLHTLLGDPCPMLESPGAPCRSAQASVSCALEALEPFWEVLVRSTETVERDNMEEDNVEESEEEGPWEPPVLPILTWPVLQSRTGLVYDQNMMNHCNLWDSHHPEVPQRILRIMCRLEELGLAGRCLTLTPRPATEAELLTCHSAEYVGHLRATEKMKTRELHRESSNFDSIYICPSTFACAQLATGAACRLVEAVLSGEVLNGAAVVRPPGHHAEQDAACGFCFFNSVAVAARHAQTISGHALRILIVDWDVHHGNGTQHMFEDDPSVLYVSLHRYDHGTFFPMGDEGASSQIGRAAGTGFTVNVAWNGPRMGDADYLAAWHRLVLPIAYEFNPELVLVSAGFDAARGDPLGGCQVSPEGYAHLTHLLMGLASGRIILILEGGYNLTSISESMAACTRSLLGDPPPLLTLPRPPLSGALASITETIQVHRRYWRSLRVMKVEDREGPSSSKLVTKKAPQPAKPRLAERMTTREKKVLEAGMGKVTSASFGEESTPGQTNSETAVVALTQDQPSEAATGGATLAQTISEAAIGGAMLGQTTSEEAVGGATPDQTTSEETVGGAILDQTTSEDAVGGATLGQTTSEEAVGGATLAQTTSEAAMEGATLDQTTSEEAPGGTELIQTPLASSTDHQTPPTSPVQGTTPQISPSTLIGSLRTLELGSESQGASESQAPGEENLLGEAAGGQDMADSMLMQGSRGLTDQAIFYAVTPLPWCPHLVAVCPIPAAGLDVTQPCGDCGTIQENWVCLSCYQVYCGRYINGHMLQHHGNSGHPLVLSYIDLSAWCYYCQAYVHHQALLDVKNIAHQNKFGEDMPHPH
Method: as §2, §1

[4] = system: SK-N-BE(2)-C cells; test: Colony formation assay in neuroblastoma cells; format: cell-based, human; conditions: 5 and 10 μM, treatment 96 h, then 6 days without treatment
Method: In order to measure the functional consequence of HDAC8 inhibition, two different cell lines were used: SK-N-BE(2)-C cells, which display MYCN amplification and non-functional p53; and IMR-32 cells having p53 wild type, which both respond with growth arrest and signs of neuronal differentiation upon knockdown or selective inhibition of HDAC8. Growth arrest was determined by colony formation and viability assays. Cells were treated with 5 and 10 μM of each of the CRBN_ based HDAC8 PROTACs having a triazole linker (CRBN_1d, CRBN_1e, CRBN_1f) for 96 h, followed by culturing for another 6 days without treatment (Figure 5A). This assesses whether the treatment impairs the clonogenic growth capacity of tumor cells, indicating effectiveness of compounds on the survival and proliferation of tumor cells.
In six-well plates, 500 cells were seeded and treated as indicated. Viable colonies were stained after a minimum of 10 days with crystal violet. For quantification, the mean intensity of each well of the 8-bit binary picture was measured with ImageJ software (U. S. National Institutes of Health, Bethesda, MD, USA; http://imagej.nih.gov/ij/ (accessed on 1 March 2022)).
Figure 5 (A) Neuroblastoma SK-N-BE(2)-C cells; Colony Assay, 10 days (compound treatment within first 96 h). Stained with crystal violet and quantified with ImageJ. (B,C) Trypan Blue assay for detection of dead cells. Neuroblastoma IMR-32 cells were either treated with 5 µM (B) or 10 µM (C). (D,E) Cell proliferation assessed via counting of viable cells. IMR-32 cells were either treated with 5 µM (D) or 10 µM (E) PROTACs. HDAC8i PCI-34501 served as a positive control, untreated (MEM) and solvent (DMSO) treated cells served as negative controls.

[5] = Table 1, PROTACs, read-out: HDAC6 IC50
[6] = Table 2, inhibitors synthesized in this paper (S1)
[7] = Table 2, inhibitors synthesized in this paper (S1), read-out: HDAC1 IC50
[8] = Table 2, inhibitors synthesized in this paper (S1), read-out: HDAC6 IC50

HDAC1, sequence (Q13547 whole entry): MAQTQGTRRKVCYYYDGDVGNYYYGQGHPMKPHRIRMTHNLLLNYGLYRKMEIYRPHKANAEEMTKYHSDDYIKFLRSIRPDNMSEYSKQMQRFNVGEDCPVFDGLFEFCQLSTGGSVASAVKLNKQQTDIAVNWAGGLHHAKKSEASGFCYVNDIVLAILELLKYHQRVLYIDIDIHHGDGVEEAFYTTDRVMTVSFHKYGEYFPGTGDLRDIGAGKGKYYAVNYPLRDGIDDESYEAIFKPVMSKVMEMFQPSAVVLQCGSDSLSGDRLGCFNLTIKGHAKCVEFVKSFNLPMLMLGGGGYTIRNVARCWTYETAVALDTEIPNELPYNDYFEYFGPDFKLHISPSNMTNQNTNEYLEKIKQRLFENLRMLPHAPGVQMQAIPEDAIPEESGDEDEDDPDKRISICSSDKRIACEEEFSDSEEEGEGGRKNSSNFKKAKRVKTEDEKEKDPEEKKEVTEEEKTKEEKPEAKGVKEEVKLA

SMILES | IC50 ([1]; Table 1, PROTACs) [nM] | inhibition at 1 µM [2] [%] | inhibition at 10 µM [2] [%] | SI (HDAC6/HDAC8) [1] | other results
Cc1ncsc1-c1ccc(CNC(=O)[C@@H]2C[C@@H](O)CN2C(=O)[C@@H](NC(=O)CCCCCNC(=O)COc2ccc(CNc3cc(C(=O)NO)ccc3Cl)cc2)C(C)(C)C)cc1 [VHL_1l] | 720 ± 150 | 6 | 45.5 | – | inhibition at 1 µM ([3]; 1 µM, read-out: HDAC6 % inhib. at given conc.): 8.3%; inhibition at 10 µM ([3]; 10 µM, read-out: HDAC6 % inhib. at given conc.): 72.4%
COc1ccc(C(=O)NO)cc1NC(=O)c1ccc(CNC(=O)CCCCCCCNc2cccc3c2C(=O)N(C2CCC(=O)NC2=O)C3=O)cc1 (stereo not drawn) [CRBN_1c] | 150 ± 10 | 22.2 | 40.1 | 2 | IC50 [3]: 250 ± 20 nM
COc1ccc(C(=O)NO)cc1NC(=O)c1ccc(NC(=O)CCCCCNc2cccc3c2C(=O)N(C2CCC(=O)NC2=O)C3=O)cc1 (stereo not drawn) [CRBN_1a] | 90 ± 30 | – | – | 2 | IC50 [2]: 4370 ± 650 nM; IC50 [3]: 220 ± 60 nM
COc1ccc(C(=O)NO)cc1NC(=O)c1ccc(NC(=O)CCCCCCCNC(=O)CC23CC4CC(CC(C4)C2)C3)cc1 [HyT_1n] | 390 ± 30 | 38.6 | 30 | 2 | IC50 [3, 5]: 820 ± 50 nM
COc1ccc(CNc2cc(C(=O)NO)ccc2OC)cc1 [2h] | – | – | – | – | IC50 [1, 6]: 10 ± 1 nM; IC50 [2, 7]: > 20000 nM; IC50 [3, 8]: 150 ± 1 nM
O=C(COc1ccc(CNc2cc(C(=O)NO)ccc2Cl)cc1)OCc1ccccc1 [2i] | – | – | – | – | IC50 [1, 6]: 410 ± 50 nM; IC50 [2, 7]: > 20000 nM; IC50 [3, 8]: 7400 ± 600 nM
O=C1CCC(N2C(=O)c3cccc(NC(=O)CCCCCn4cc(COc5ccc(CNc6cc(C(=O)NO)ccc6Cl)cc5)nn4)c3C2=O)C(=O)N1 (stereo not drawn) [CRBN_1f] | 250 ± 30 | – | – | 5 | Effect on colony formation [4]: inactive; IC50 ([2]; Table 1, PROTACs, read-out: HDAC1 IC50): 10800 ± 700 nM; IC50 [3, 5]: 1300 ± 300 nM
